Data on 15 compounds can be found in patent publication US9657018B2, “Antagonists acting at multiple prostaglandin receptors for the treatment of inflammation” (Allergan, Inc., priority 2014, dated 2017).

Where a name gives a salt, the structure may show the parent alone. Bounds are passed on as bounds.

What all share (format): cell-based
The target of assay [1] is T1, human prostanoid EP1 receptor (Homo sapiens, UniProt P34995).
T1 construct: expressed in transfected cells
T1 sequence (P34995 1-402): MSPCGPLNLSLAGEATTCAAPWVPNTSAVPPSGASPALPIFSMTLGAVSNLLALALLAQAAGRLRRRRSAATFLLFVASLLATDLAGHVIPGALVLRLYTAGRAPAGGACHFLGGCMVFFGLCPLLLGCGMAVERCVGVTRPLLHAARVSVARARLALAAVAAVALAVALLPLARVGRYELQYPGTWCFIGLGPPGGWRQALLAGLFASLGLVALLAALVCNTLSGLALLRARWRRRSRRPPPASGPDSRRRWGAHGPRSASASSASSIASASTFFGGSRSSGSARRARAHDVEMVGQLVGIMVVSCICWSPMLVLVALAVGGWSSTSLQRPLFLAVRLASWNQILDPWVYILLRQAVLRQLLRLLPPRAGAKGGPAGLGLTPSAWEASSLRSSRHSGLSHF
Put plainly: FLIPR Ca2+ signaling antagonist assay, EP1 receptor stable cell line. The following applies: human recombinant EP1 in HEK-293 EBNA cells; standard agonist PGE2; NA = no antagonism or Kb>=10,000 nM. The procedure: (§1) The above compounds were tested for PG antagonist activity as follows using human recombinant prostanoid receptor (DP1, EP1-4, FP, IP and TP) stable cell lines:
(§2) In order to measure the response of Gs and Gi coupled prostanoid receptors as a Ca^2+ signal, chimeric G protein cDNAs were used. Stable cell lines over-expressing human prostanoid DP1, EP1-4, FP, IP, and TP receptors were established as follows:
(§3) Briefly, human prostanoid DP1, EP2, and EP4 receptor cDNAs were co-transfected with chimeric Gqs cDNA containing a haemagglutanin (HA) epitope; human prostanoid EP3 receptors were co-transfected with chimeric Gqi-HA; human EP1, FP, IP, and TP receptor cDNAs were expressed with no exogenous G-proteins. Gqs and Gqi chimeric cDNAs (Molecular Devices, Sunnyvale, Calif., U.S.A.), as well as cDNAs of prostanoid receptors, were cloned into a pCEP4 vector with a hygromycin B selection marker. Transfection into HEK-293 EBNA (Epstein-Barr virus nuclear antigen) cells was achieved by the FuGENE 6 transfection Reagent (Roche Applied Science, Indianapolis, Ind., USA). Stable transfectants were selected according to hygromycin resistance. Because Gqs and Gqi contained an HA epitope, G-protein expression was detected by Western blotting analysis using anti-mouse HA monoclonal antibody and horseradish peroxidase (HRP)-conjugated secondary antibody, while functional expression of prostanoid receptors was detected by FLIPR screening (Matias et al., 2004). These stable cell lines were validated using previously published antagonists at 10 μM against serial dilutions of standard agonists by FLIPR functional assays for Ca^2+ Signaling (as described below).
(§4) Ca^2+ signaling studies were performed using a FLIPR TETRA system (Molecular Devices, Sunnyvale, Calif., USA) in the 384-format. This is a high-throughput instrument for cell-based assays to monitor Ca^2+ signaling associated with GPCRs and ion channels. Cells were seeded at a density of 5×10^4 cells/well in BioCoat poly-D-lysine coated, black wall, clear bottom 384-well plates (BD Biosciences, Franklin lakes, NJ, USA) and allowed to attach overnight in an incubator at 37° C. The cells were then washed twice with HBSS-HEPES buffer (Hanks' balanced salt solution without bicarbonate and phenol red, 20 mM HEPES, pH 7.4) using an ELx405 Select CW Microplate Washer (BioTek, Winooski, Vt., USA). After 60 min of dye-loading in the dark using the Ca^2+-sensitive dye Fluo-4AM (Invitrogen, Carlsbad, Calif., USA), at a final concentration of 2×10^−6M, the plates were washed 4 times with HBSS-HEPES buffer to remove excess dye and leaving 50 μl of buffer in each well. The plates were then placed in the FLIPR TETRA instrument and allowed to equilibrate at 37° C. AGN-211377 was added in a 25 μl volume to each well to give final concentrations of 0.1 μl. M, 0.4M, 1 μM, 3 μl. M, 10 μl. M, and 30 μl. M; or 0.067 μM, 0.4M, 0.67 μM, and 1 μM for cells over-expressing TP receptors. After 4.5 minutes, a 7-point serial dilution of the standard agonist for the corresponding receptor, in a 25 μl volume was injected at the final concentrations from 10^−11M to 10^−5M in 10-fold serial dilution increments for cells expressing human recombinant DP1, EP1, EP2, EP3, EP4, FP, and IP receptors. The dose range for the standard agonist for human recombinant TP receptors was from 10^−12M to 10^−6M. HBSS-HEPES buffer was used as the negative control for the standard agonists. Cells were excited with LED (light emitting diode) excitation at 470-495 nm and emission was measured through an emission filter at 515-575 nm. Assay plates were read for 3.5 minutes using the FLIPR^TETRA. The peak increase in fluorescence intensity was recorded for each well. On each plate, negative controls, dose response of positive controls, and co-treatments of antagonist-agonist for each dose were in triplicates. Standard agonists were as follows: DP=BW 245C, EP1-EP4=PGE2, FP=17-phenyl-PGF2a, IP=Cicaprost, and TP=U-46619. […]

The target in assay [2] is T2, human prostanoid EP4 receptor (Homo sapiens, UniProt P35408).
T2 construct: expressed in transfected cells
T2 sequence (P35408 whole entry): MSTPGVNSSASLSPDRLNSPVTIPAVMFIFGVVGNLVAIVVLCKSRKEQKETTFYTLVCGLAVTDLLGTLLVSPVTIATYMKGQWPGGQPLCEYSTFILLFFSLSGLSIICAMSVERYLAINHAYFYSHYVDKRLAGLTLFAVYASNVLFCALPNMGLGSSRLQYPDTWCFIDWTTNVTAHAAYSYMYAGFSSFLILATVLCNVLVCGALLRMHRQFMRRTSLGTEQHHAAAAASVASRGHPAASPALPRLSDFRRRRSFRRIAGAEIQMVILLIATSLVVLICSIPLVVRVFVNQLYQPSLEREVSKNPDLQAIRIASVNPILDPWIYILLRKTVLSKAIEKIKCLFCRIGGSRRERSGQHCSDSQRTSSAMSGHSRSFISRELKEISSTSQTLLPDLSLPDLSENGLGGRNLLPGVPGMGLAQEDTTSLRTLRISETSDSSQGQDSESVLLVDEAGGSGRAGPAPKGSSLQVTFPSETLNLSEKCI
Put plainly: FLIPR Ca2+ signaling antagonist assay, EP4 receptor stable cell line. The following applies: human recombinant EP4 + chimeric Gqs in HEK-293 EBNA cells; standard agonist PGE2; NA = no antagonism or Kb>=10,000 nM. The procedure:
as §1, §2, §3, §4

Assay [3] concerns the target T3, human prostanoid EP2 receptor (Homo sapiens, UniProt P43116).
T3 construct: expressed in transfected cells
Kind of assay: FLIPR Ca2+ signaling antagonist assay, EP2 receptor stable cell line. Details: key to FLIPR data EP2 (Kb): PAg = partial agonist; Ag = agonist; NA = not active. The following applies: human recombinant EP2 + chimeric Gqs in HEK-293 EBNA cells; standard agonist PGE2; NA = no antagonism or Kb>=10,000 nM. As for the experimental part: as §1, §2, §3, §4

For assay [4], the target named is T4, human prostanoid TP receptor (Homo sapiens, UniProt P21731).
T4 construct: expressed in transfected cells
T4 sequence (P21731 1-343): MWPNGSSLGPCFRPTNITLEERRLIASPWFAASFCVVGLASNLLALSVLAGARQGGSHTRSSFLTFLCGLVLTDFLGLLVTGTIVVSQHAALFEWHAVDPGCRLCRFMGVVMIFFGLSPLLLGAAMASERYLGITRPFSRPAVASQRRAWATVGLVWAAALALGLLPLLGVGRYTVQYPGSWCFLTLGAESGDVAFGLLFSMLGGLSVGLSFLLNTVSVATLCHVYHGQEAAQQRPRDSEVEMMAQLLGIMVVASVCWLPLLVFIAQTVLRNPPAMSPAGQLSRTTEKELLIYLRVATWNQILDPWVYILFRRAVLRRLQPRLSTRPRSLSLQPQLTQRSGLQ
Put plainly: FLIPR Ca2+ signaling antagonist assay, TP receptor stable cell line. Details: key to FLIPR data TP (Kb): PAg = partial agonist; Ag = agonist; NA = not active. To be noted: human recombinant TP in HEK-293 EBNA cells; standard agonist U-46619; NA = no antagonism or Kb>=10,000 nM. The procedure: as §1, §2, §3, §4

T3 sequence (P43116 whole entry): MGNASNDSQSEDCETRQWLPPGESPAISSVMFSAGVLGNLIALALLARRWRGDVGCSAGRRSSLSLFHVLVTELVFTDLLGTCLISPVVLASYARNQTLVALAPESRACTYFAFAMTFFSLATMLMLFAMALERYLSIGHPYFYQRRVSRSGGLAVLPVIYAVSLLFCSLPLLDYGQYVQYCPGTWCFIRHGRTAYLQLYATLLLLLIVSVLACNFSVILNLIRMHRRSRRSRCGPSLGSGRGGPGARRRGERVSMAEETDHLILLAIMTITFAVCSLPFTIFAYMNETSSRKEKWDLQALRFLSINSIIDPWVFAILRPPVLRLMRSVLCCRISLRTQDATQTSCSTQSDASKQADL

As usually defined, the Kb is the equilibrium dissociation constant of an antagonist, usually derived from a functional assay. With `CC(C)Cn1ncc2cc(Cl)cc(Cn3ncc4cc(C(=O)O)ccc43)c21` [Compound 41, 1-(5-Chloro-1-isobutyl-1H-indazol-7-ylmethyl)-1H-indazole-5-carboxylic acid], the Kb was found to be 0.73 µM in assay [1], 0.024 µM in assay [2], 9.2 µM in assay [3] and 0.04 µM in assay [4].

Take `CC(C)Cn1ncc2cc(Br)cc(Cn3ncc4cc(C(=O)O)ccc43)c21` [Compound 42, 1-(5-Bromo-1-isobutyl-1H-indazol-7-ylmethyl)-1H-indazole-5-carboxylic acid]: the Kb in assay [1] is 2.3 µM; in assay [2] it was 0.022 µM; in assay [3], greater than 10 µM; in assay [4], 0.16 µM.

For the compound `CC(C)Cn1ncc2cc(F)cc(Cn3ncc4cc(C(=O)O)ccc43)c21` [Compound 43, 1-(5-Fluoro-1-isobutyl-1H-indazol-7-ylmethyl)-1H-indazole-5-carboxylic acid], the antagonist equilibrium constant (Kb) was greater than 10 µM in assay [1], 0.1 µM in assay [2], greater than 10 µM in assay [3] and 0.45 µM in assay [4].

On to `CC(C)Cn1ncc2cc(C(F)(F)F)cc(Cn3ncc4cc(C(=O)O)ccc43)c21` [Compound 44, 1-(1-Isobutyl-5-trifluoromethyl-1H-indazol-7-ylmethyl)-1H-indazole-5-carboxylic acid], for which the Kb came out at 1.5 µM in assay [1] and 0.028 µM in assay [2]. Also, the “FLIPR data EP2 (Kb)” value in assay [3] is on record as “PAg”. The “FLIPR data TP (Kb)” value in assay [4] is recorded as “Ag”.

Turning to `CC(C)Cn1ncc2cc(OC(F)(F)F)cc(Cn3ncc4cc(C(=O)O)ccc43)c21` [Compound 45, 1-(1-Isobutyl-5-trifluoromethoxy-1H-indazol-7-ylmethyl)-1H-indazole-5-carboxylic acid], the Kb is 0.8 µM in assay [1], 0.005 µM in assay [2] and greater than 10 µM in assay [3]. Further, the “FLIPR data TP (Kb)” value in assay [4] is “Ag”.

For `CC(C)n1ncc2cc(Br)cc(Cn3ncc4cc(C(=O)O)ccc43)c21` [Compound 46, 1-(5-Bromo-1-isopropyl-1H-indazol-7-ylmethyl)-1H-indazole-5-carboxylic acid], the Kb in assay [1] is 3 µM; in assay [2] it was 0.33 µM; in assay [3] it was greater than 10 µM; in assay [4] it was 1.4 µM.

Regarding `CCC(CC)Cn1ncc2cc(Br)cc(Cn3ncc4cc(C(=O)O)ccc43)c21` [Compound 47, 1-[5-Bromo-1-(2-ethyl-butyl)-1H-indazol-7-ylmethyl]-1H-indazole-5-carboxylic acid], the Kb in assay [1] is 0.5 µM; in assay [2], 1.7 µM; in assay [3], 5 µM; in assay [4], 0.7 µM.

For `CCCn1ncc2cc(Cl)cc(Cn3ncc4cc(C(=O)O)ccc43)c21` [Compound 48], the Kb in assay [1] is greater than 10 µM; in assay [2] it was 0.13 µM; in assay [3] it was greater than 10 µM; in assay [4] it was 0.74 µM.

Turning to `CC(C)Cn1ncc2cc(Cl)cc(Cn3ncc4cc(C(=O)O)cnc43)c21` [Compound 49, 1-(5-Chloro-1-isobutyl-1H-indazol-7-ylmethyl)-1H-pyrazolo[3,4-b]pyridine-5-carboxylic acid], the Kb in assay [1] was 9.8 µM; in assay [2] it was 0.09 µM; in assay [3], greater than 10 µM; in assay [4] it was 0.17 µM.

As for `CC(C)Cn1ncc2cc(Cl)cc(Cn3cnc4cc(C(=O)O)ccc43)c21` [Compound 50, 1-(5-Chloro-1-isobutyl-1H-indazol-7-ylmethyl)-1H-benzoimidazole-5-carboxylic acid], the Kb in assay [1] is greater than 10 µM; in assay [2] it was 0.08 µM; in assay [3] it was greater than 10 µM; in assay [4] it was 5 µM.

As for `CC(C)Cn1ncc2cc(Cl)cc(Cn3cnc4cc(C(=O)O)cnc43)c21` [Compound 51, 3-(5-Chloro-1-isobutyl-1H-indazol-7-ylmethyl)-3H-imidazo[4,5-b]pyridine-6-carboxylic acid], the Kb in assay [1] was greater than 10 µM; in assay [2] it was 0.28 µM; in assay [3] it was greater than 10 µM; in assay [4], 0.28 µM.

Regarding `CC(C)Cn1ncc2cc(Cl)cc(Cn3ccc4cc(C(=O)O)cnc43)c21` [Compound 52, 1-(5-Chloro-1-isobutyl-1H-indazol-7-ylmethyl)-1H-pyrrolo[2,3-b]pyridine-5-carboxylic acid], the Kb in assay [1] is 0.6 µM; in assay [2] it was 0.09 µM; in assay [3] it was greater than 10 µM; in assay [4], 0.02 µM.

Turning to `Cc1nn(Cc2cc(Br)cc3cnn(CC(C)C)c23)c2ccc(C(=O)O)cc12` [Compound 53, 1-(5-Bromo-1-isobutyl-1H-indazol-7-ylmethyl)-3-methyl-1H-indazole-5-carboxylic acid], the Kb was 5.7 µM in assay [1], 0.09 µM in assay [2], greater than 10 µM in assay [3] and 1 µM in assay [4].

In the case of `Cc1nn(Cc2cc(Br)cc3cnn(CC(C)C)c23)c2ncc(C(=O)O)cc12` [Compound 54, 1-(5-Bromo-1-isobutyl-1H-indazol-7-ylmethyl)-3-methyl-1H-pyrazolo[3,4-b]pyridine-5-carboxylic HCl salt], the Kb is greater than 10 µM in assay [1], 0.38 µM in assay [2], greater than 10 µM in assay [3] and 1.6 µM in assay [4].

In the case of `CC(C)Cn1ncc2cc(C(F)(F)F)cc(Cn3cnc4cc(C(=O)O)ccc43)c21` [Compound 55, 1-(1-Isobutyl-5-trifluoromethyl-1H-indazol-7-ylmethyl)-1H-benzoimidazole-5-carboxylic acid], the Kb in assay [1] was 4 µM; in assay [2], 0.08 µM; in assay [3], greater than 10 µM. The “FLIPR data TP (Kb)” value in assay [4] was “Ag”.
